From patent US12275703B2, “Highly purified batches of pharmaceutical grade migalastat and methods of producing the same” (Amicus Therapeutics, Inc., priority 2020, dated 2025)

Test system: bacterial reverse mutation
Test: bacterial reverse mutation (Ames) test
Assay type: cell-based
Details: for Ames Positive?: bacterial reverse mutation (Ames) test; for Designated Genotoxin?: designation from Derek and Ames outcome
Description: The starting materials, reagents, intermediates, and process impurities generated in the manufacturing process for migalastat hydrochloride were assessed for their potential genotoxicity using in silico (Derek for Windows v13 Lhasa Ltd) screening software. The chemical structures which were DEREK negative were evaluated using Leadscope (Model Applier and Expert Alerts). […] Where possible, the genotoxicity of these materials was then assessed via the use of the bacterial reverse mutation (Ames) test.

Row | Compound | Ames Positive? | Designated Genotoxin? | further results
1 | CC(C)(C)C(=O)OC[C@@H](N=[N+]=[N-])[C@@H]1O[C@@H](OC(=O)C(C)(C)C)[C@H](OC(=O)C(C)(C)C)[C@H]1OC(=O)C(C)(C)C [5-azido-5-deoxy-1,2,3,6-tetrapivaloyl-D-galactofuranoside] | No | No | –
2 | CC(C)(C)C(=O)OC[C@@H](OS(=O)(=O)C(F)(F)F)[C@@H]1O[C@@H](OC(=O)C(C)(C)C)[C@H](OC(=O)C(C)(C)C)[C@H]1OC(=O)C(C)(C)C [Compound D] | not sufficiently stable for Ames testing | designated as genotoxins | Ames Positive? (listed as drawing 74): Insufficiently stable for Ames test; Designated Genotoxin? (listed as drawing 74): Yes
3 | CC(C)(C)C(=O)OC[C@H](OS(=O)(=O)C(F)(F)F)[C@@H]1O[C@@H](OC(=O)C(C)(C)C)[C@H](OC(=O)C(C)(C)C)[C@H]1OC(=O)C(C)(C)C [Compound F] | not sufficiently stable for Ames testing | designated as genotoxins | Ames Positive? (listed as drawing 75): Insufficiently stable for Ames test; Designated Genotoxin? (listed as drawing 75): Yes
4 | CC(C)(C)C(=O)OC[C@H](N=[N+]=[N-])[C@@H]1O[C@@H](OC(=O)C(C)(C)C)[C@H](OC(=O)C(C)(C)C)[C@H]1OC(=O)C(C)(C)C [Compound N] | No | No | –
5 | [N-]=[N+]=N[C@@H]1CO[C@@](O)(CO)[C@@H](O)[C@H]1O [Compound P] | Ames positive | confirmed as genotoxins | Ames Positive? (listed as drawing 79): Yes; Designated Genotoxin? (listed as drawing 79): Yes
6 | [N-]=[N+]=N[C@H](CO)[C@@H]1O[C@@H](O)[C@H](O)[C@H]1O [Compound Q] | Ames positive | confirmed as genotoxins | Ames Positive? (listed as drawing 78): Yes; Designated Genotoxin? (listed as drawing 78): Yes
7 | Cl.O[C@@H]1[C@H](O)[C@@H](O)CN[C@@H]1CCl [Compound X] | Ames positive | confirmed as genotoxins | Ames Positive? (listed as drawing 80): Yes; Designated Genotoxin? (listed as drawing 80): Yes
8 | CCCl [Ethyl chloride] | Yes | Yes | –
